Entries after “also recorded” stand apart in the source; their conditions may differ.
Columns and labels:
[1] = tested on: WT murine primary chondrocytes; experiment: Murine primary chondrocyte calcification (Alizarin red); assay type: cell-based, mouse; settings: sCPP 24 h, DMEM+10% FBS, 50 uM
Method: (a) WT and Cse-deficient chondrocytes were incubated with a CSE activator (SU004, 50 μM) previously identified by high-through put screen, or with the equivalent volume of DMSO (0.1%) for 24 hours in calcification medium. STS 25 mM was used as a positive control for calcification inhibition. Calcium-containing crystals were stained with Alizarin red and quantified. (b) Cytotoxicity was assessed by LDH measurement and expressed as % over 100% cytotoxicity. (c) IL-6 secretion was measured by ELISA in supernatant of WT chondrocytes incubated with SU004 50 μM or STS 25 mM for 24 hours in calcification medium. (d) Primary human chondrocytes from 3 OA patients (P1, P2, P3) were incubated with SU004 50 μM, or with the equivalent volume of DMSO (0.1%) for 24 hours in calcification medium. Calcium-containing crystals were stained with Alizarin red and quantified. (e) Cytotoxicity was assessed by LDH measurement and expressed as % over 100% cytotoxicity. (f) IL-6 secretion was measured by ELISA in supernatant of human chondrocytes incubated for 24 hours with SU004 50 μM in calcification medium. *p<0.05, ** p<0.01, ****p<0.0001.
Primary murine chondrocytes were stimulated with secondary calciprotein particles (sCPP) for 24 h in DMEM+10% FBS in presence of C5 or C6 at 50 uM or vehicle (DMSO). Mineralization was analyzed by Alizarin red staining of the cells (A) and quantified (B). Statistical analysis was determined using one-way ANOVA with **p<0.01 and ***p<0.001.
Chondrocytes were isolated from 6 days old mice (Cse KO, Cse tg, Cbs KO and corresponding WT mice) as described previously (Nasi, So, et al. 2016). Tenocytes were isolated from 6 to 8 weeks old mice (Cse KO and WT) and by double digestion in Collagenase IV NB standard grade (Witec AG). […]
After incubation in calcification media, supernatant was collected for ELISA and LDH measurement, and cell monolayer was washed in PBS, fixed in 10% formol and crystal deposition analyzed through Alizarin red staining and quantified as previously described

ATDCS chondrocytes = experiment: ATDCS chondrocyte mineralization (Alizarin red); assay type: cell-based; settings: sCPP 24 h, different concentrations
Method: Alizarin red staining of ATDCS chondrocytes stimulated with sCPP for 24 h in DMEM+10% FBS in presence of different concentrations of compounds C5 and C6. The graphs show Alizarin red absorbance at 570-630 nm. Statistical analysis (in comparison to 0) was determined using one-way ANOVA with *p<0.05, **p<0.01, ***p<0.001, […].

MOVAS cells = experiment: Cytotoxicity assay, LDH release; assay type: cell-based, mouse; settings: at 2 uM
Method in brief: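 MOVAS cells were exposed to CPP for 24 h in DMEM+10% FBS with a range of compound concentrations. Cytotoxicity was measured as LDH release by a homogeneous membrane-integrity assay, expressed as background-subtracted percentage of the Triton X-100-lysed signal.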

primary murine tenocytes = experiment: Primary murine tenocyte mineralization (Alizarin red); assay type: cell-based, mouse; settings: secondary CPP 24 h, 50 uM; listed as Z20
Method: A) Alizarin red absorbance at 570-630 nm of primary murine tenocytes stimulated with secondary CPP for 24 h in DMEM+10% FBS and treated or not with 50 uM of Z20. B) Percentage of cytotoxicity (LDH %) in tenocytes treated or not with Z20 for 24 h. Statistical analysis was determined using one-way ANOVA with ***p<0.001.
Chondrocytes were isolated from 6 days old mice (Cse KO, Cse tg, Cbs KO and corresponding WT mice) as described previously (Nasi, So, et al. 2016). Tenocytes were isolated from 6 to 8 weeks old mice (Cse KO and WT) and by double digestion in Collagenase IV NB standard grade (Witec AG). Chondrocytes were amplified in DMEM with 10% FBS and 1% Penicillin Streptomycin and used at P1. Tenocytes were amplified in αDMEM with 10% FBS, 0.2 mM L-ascorbic acid, 2-phosphate and 1% Penicillin Streptomycin and used at P1. For crystal formation analysis, cells were cultured for 14 days in calcification medium (BGJb (Gibco) medium with 10% FBS, 0.2 mM L-ascorbic acid, 2-phosphate, 20 mM β-glycerol phosphate and 1% Penicillin Streptomycin). Medium and stimulations were refreshed every 3 days of culture. Alternatively, in some experiments, cells were cultured for 24 h in medium supplemented with secondary calciprotein particles (CPP, final concentration equivalent to […] calcium) to induce calcification as previously described (Aghagolzadeh et al. 2017). […]

WT primary VSMC = experiment: Primary vascular smooth muscle cell mineralization, wild type; assay type: cell-based, mouse; settings: secondary CPP 24 h, 50 uM, listed as Z20
Method: (§1) Primary VSMC were isolated from wild-type (WT) or CSE-deficient (CSE ko) mice. A) Alizarin red staining of WT or CSE ko VSMC stimulated with secondary CPP for 24 h in DMEM+10% FBS and treated or not with 50 uM of compound Z20. […] Statistical analysis was determined using one-way ANOVA (compared to WT vehicle) with ***p<0.001, ****p<0.0001.

HaCaT cells = experiment: Human keratinocyte line mineralization (Alizarin red); assay type: cell-based; settings: secondary CPP 24 h, different concentrations; listed as Z20
Method: Immortalized human keratinocytes HaCaT cells were stimulated with secondary CPP and different concentrations of the compound Z20 for 24 h. Cells were then stained with Alizarin Red. […] Statistical analysis was determined using one-way ANOVA with *p<0.05, ***p<0.001.

CSE ko primary VSMC = experiment: Primary vascular smooth muscle cell mineralization, CSE ko; assay type: cell-based, mouse; settings: secondary CPP 24 h, 50 uM
Method: as §1

| SMILES | Mineralization (Alizarin red) [1] | Mineralization (Alizarin red absorbance 570-630 nm) (ATDCS chondrocytes) | Cytotoxicity assay LDH release (% of cytotoxicity) (MOVAS cells) | Mineralization (Alizarin red absorbance 570-630 nm) (primary murine tenocytes) | Mineralization (Alizarin red, % over WT vehicle) (WT primary VSMC) | Mineralization (Alizarin red absorbance 570-630 nm) (HaCaT cells) | Mineralization (Alizarin red, % over WT vehicle) (CSE ko primary VSMC) |
| --- | --- | --- | --- | --- | --- | --- | --- |
| Cn1ncc2c(Nc3cnn(CC4CCCO4)c3)ncnc21 (stereo not shown) [Compound 8, N-{1-methyl-1H-pyrazolo[3,4-d]pyrimidin-4-yl}-1-[(oxolan-2-yl)methyl]-1H-pyrazol-4-amine] | inhibit primary murine chondrocyte mineralization | inhibit ATDCS mineralization in vitro in a dose dependent fashion | 15% at |  |  |  |  |
| CCn1cnc2c(Nc3cnn(CC4CCCO4)c3)ncnc21 (stereo not shown) [Compound 13] |  |  |  | inhibited calcification; also recorded: inhibits primary murine tenocyte mineralization | significant inhibition; also recorded: inhibits primary vascular smooth muscle cell mineralization | inhibited calcification; also recorded: inhibits human keratinocyte line mineralization | no inhibition |
